Here are results for 34 molecules from ChEMBL document CHEMBL4418261, “Pyripyropene derivatives having acat2 inhibiting activity and stable to metabolizing enzymes” (2017).

Bounds are passed on as bounds.

Data set [1] can be described thus: Half life in Sprague-Dawley rat hepatic microsomes at 6 ug/ml by LC-MS method. To be noted: liver microsomes. It counts as ADME, Microsome. A general note: Microsomes from liver hold many membrane-bound enzymes, among them those of drug oxidation.
For data set [2], the target named is T1, Sterol O-acyltransferase 2 (Mus musculus) (UniProt O88908).
T1 sequence (whole entry): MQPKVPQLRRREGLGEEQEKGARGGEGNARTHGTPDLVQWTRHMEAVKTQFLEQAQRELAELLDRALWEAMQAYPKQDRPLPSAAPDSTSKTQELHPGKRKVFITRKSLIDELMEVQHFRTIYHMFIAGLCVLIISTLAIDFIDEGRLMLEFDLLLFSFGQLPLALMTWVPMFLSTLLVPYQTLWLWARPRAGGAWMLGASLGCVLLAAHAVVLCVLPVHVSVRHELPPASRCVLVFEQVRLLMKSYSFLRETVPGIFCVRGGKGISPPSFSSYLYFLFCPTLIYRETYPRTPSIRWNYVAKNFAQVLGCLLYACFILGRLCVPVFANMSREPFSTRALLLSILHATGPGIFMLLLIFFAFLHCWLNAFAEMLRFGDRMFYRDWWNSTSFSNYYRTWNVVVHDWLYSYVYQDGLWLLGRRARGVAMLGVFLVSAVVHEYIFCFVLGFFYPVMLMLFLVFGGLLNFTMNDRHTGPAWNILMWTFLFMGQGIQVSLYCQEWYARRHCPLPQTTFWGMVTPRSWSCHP
The data set is described as follows: Potency index, ratio of PRD-043 IC50 to test compound IC50 for inhibition ACAT2 in mouse hepatic microsome membranes using [1-14C]oleoyl coenzyme A as substrate incubated for 5 mins. The data set is classed as microsomes.

As usually defined, the half-life is the time in which the quantity being followed falls by half. `CC(=O)OC[C@@]1(C)[C@@H]2C[C@H](OC(=O)c3ccc(C#N)cc3)[C@@]3(C)Oc4cc(-c5cccnc5)oc(=O)c4[C@H](O)[C@@H]3[C@@]2(C)CC[C@@H]1OC(=O)C(C)C` displayed a half-life at 6 ug/ml in data set [1] of over 9 h. In addition, the Ratio IC50 in data set [2] is under 20.
For `C[C@@]12CO[C@@H](c3ccccc3)O[C@H]1CC[C@@]1(C)[C@H]2C[C@H](OC(=O)C2CCCCC2)[C@@]2(C)Oc3cc(-c4cccnc4)oc(=O)c3[C@H](O)[C@H]12`, in that order: over 9 h and 10 to 20.
In the case of `CC(=O)OC[C@@]1(C)[C@@H]2C[C@H](OC(=O)c3ccccc3F)[C@@]3(C)Oc4cc(-c5cccnc5)oc(=O)c4[C@H](O)[C@@H]3[C@@]2(C)CC[C@@H]1OC(C)=O`, the half-life at 6 ug/ml in data set [1] is under 1 h.
In the case of `Cc1ccc([C@@H]2OC[C@@]3(C)[C@@H]4C[C@H](OC(=O)c5ccc(C#N)cc5)[C@@]5(C)Oc6cc(-c7cccnc7)oc(=O)c6[C@H](O)[C@@H]5[C@@]4(C)CC[C@@H]3O2)cc1`, in data set [1], the half-life at 6 ug/ml was over 9 h. Further, the Ratio IC50 in data set [2] was in the range of 10 to 20.
The matching figures for `COc1ccccc1[C@@H]1OC[C@@]2(C)[C@@H]3C[C@H](OC(=O)c4ccc(F)cc4)[C@@]4(C)Oc5cc(-c6cccnc6)oc(=O)c5[C@H](O)[C@@H]4[C@@]3(C)CC[C@@H]2O1`: over 9 h and 10 to 20.
In the case of `CC(=O)O[C@H]1CC[C@@]2(C)[C@@H](C[C@H](OC(=O)c3ccc(C#N)cc3)[C@@]3(C)Oc4cc(-c5cccnc5)oc(=O)c4[C@H](O)[C@H]23)[C@]1(C)COC(=O)C(C)C`, the half-life at 6 ug/ml in data set [1] was over 9 h. Besides, the Ratio IC50 in data set [2] was 10 to 20.
Consider `C[C@@]12CO[C@@H](c3ccccc3)O[C@H]1CC[C@@]1(C)[C@H]2C[C@H](OC(=O)c2ccccc2)[C@@]2(C)Oc3cc(-c4cccnc4)oc(=O)c3[C@H](O)[C@H]12`, for which, in data set [1], the half-life at 6 ug/ml is over 9 h. Further, in data set [2], the Ratio IC50 was in the range of 10 to 20.
For `CC(=O)OC[C@@]1(C)[C@@H]2C[C@H](OC(C)=O)[C@@]3(C)Oc4cc(-c5cccnc5)oc(=O)c4[C@H](O)[C@@H]3[C@@]2(C)CC[C@@H]1OC(C)=O`, the half-life at 6 ug/ml in data set [1] was under 1 h.
`CC(=O)OC[C@@]1(C)[C@@H]2C[C@H](OC(=O)c3ccc(C#N)cc3)[C@@]3(C)Oc4cc(-c5cccnc5)oc(=O)c4[C@H](O)[C@@H]3[C@@]2(C)CC[C@@H]1OC(=O)c1ccccc1` returned a half-life at 6 ug/ml in data set [1] of over 9 h. Further, in data set [2], the Ratio IC50 lay in the range of 10 to 20.
`COc1ccccc1[C@@H]1OC[C@@]2(C)[C@@H]3C[C@H](OC(=O)c4ccc(C#N)cc4)[C@@]4(C)Oc5cc(-c6cccnc6)oc(=O)c5[C@H](O)[C@@H]4[C@@]3(C)CC[C@@H]2O1`: the half-life at 6 ug/ml in data set [1] is over 9 h. Besides, the Ratio IC50 in data set [2] is 10 to 20.
Take `COc1cccc(C(=O)O[C@H]2C[C@H]3[C@](C)(COC(C)=O)[C@@H](OC(C)=O)CC[C@]3(C)[C@H]3[C@@H](O)c4c(cc(-c5cccnc5)oc4=O)O[C@]23C)c1`: the half-life at 6 ug/ml in data set [1] is over 9 h. The Ratio IC50 in data set [2] amounted to 1.
Consider `CC(C)C(=O)OC[C@@]1(C)[C@@H]2C[C@H](OC(=O)c3ccc(C#N)cc3)[C@@]3(C)Oc4cc(-c5cccnc5)oc(=O)c4[C@H](O)[C@@H]3[C@@]2(C)CC[C@@H]1OC(=O)C(C)C`, for which, in data set [1], the half-life at 6 ug/ml is over 9 h. For the same molecule, the Ratio IC50 in data set [2] is 0.1 to 1.
For `Cc1cccc([C@@H]2OC[C@@]3(C)[C@@H]4C[C@H](OC(=O)c5ccc(F)cc5)[C@@]5(C)Oc6cc(-c7cccnc7)oc(=O)c6[C@H](O)[C@@H]5[C@@]4(C)CC[C@@H]3O2)c1`, the half-life at 6 ug/ml in data set [1] is over 9 h. Further, the Ratio IC50 in data set [2] is 10 to 20.
Turning to `CC(C)C(=O)OC[C@@]1(C)[C@@H]2C[C@H](OC(=O)c3ccc([N+](=O)[O-])cc3)[C@@]3(C)Oc4cc(-c5cccnc5)oc(=O)c4[C@H](O)[C@@H]3[C@@]2(C)CC[C@@H]1OC(=O)C(C)C`, the half-life at 6 ug/ml in data set [1] was over 9 h. The Ratio IC50 in data set [2] was 10 to 20.
The matching figures for `C[C@@]12CO[C@@H](c3ccccc3F)O[C@H]1CC[C@@]1(C)[C@H]2C[C@H](OC(=O)c2ccc(F)cc2)[C@@]2(C)Oc3cc(-c4cccnc4)oc(=O)c3[C@H](O)[C@H]12`: over 9 h and 10 to 20.
The matching figures for `CC(C)C(=O)OC[C@@]1(C)[C@@H]2C[C@H](OC(=O)C3CCCCC3)[C@@]3(C)Oc4cc(-c5cccnc5)oc(=O)c4[C@H](O)[C@@H]3[C@@]2(C)CC[C@@H]1OC(=O)C(C)C`: over 9 h and 10 to 20.
For `Cc1cccc([C@@H]2OC[C@@]3(C)[C@@H]4C[C@H](OC(=O)c5ccc(C#N)cc5)[C@@]5(C)Oc6cc(-c7cccnc7)oc(=O)c6[C@H](O)[C@@H]5[C@@]4(C)CC[C@@H]3O2)c1`, in that order: over 9 h and under 20.
With `CC(=O)O[C@H]1CC[C@@]2(C)[C@@H](C[C@H](OC(=O)c3ccc(C#N)cc3)[C@@]3(C)Oc4cc(-c5cccnc5)oc(=O)c4[C@H](O)[C@H]23)[C@]1(C)COC(=O)c1ccccc1`, the half-life at 6 ug/ml in data set [1] is over 9 h. Further, in data set [2], the Ratio IC50 was 10 to 20.
`CC(=O)OC[C@@]1(C)[C@@H]2C[C@H](OC(=O)c3cccc(Br)c3)[C@@]3(C)Oc4cc(-c5cccnc5)oc(=O)c4[C@H](O)[C@@H]3[C@@]2(C)CC[C@@H]1OC(C)=O` displayed a half-life at 6 ug/ml in data set [1] of under 1 h.
In turn, `CC(=O)O[C@H]1C[C@H]2[C@](C)(COC(=O)C(C)C)[C@@H](OC(=O)C(C)C)CC[C@]2(C)[C@H]2[C@@H](O)c3c(cc(-c4cccnc4)oc3=O)O[C@]12C` registered a half-life at 6 ug/ml in data set [1] of over 9 h. For the same molecule, in data set [2], the Ratio IC50 fell in the range of 10 to 20.
As for `CC(=O)O[C@H]1CC[C@@]2(C)[C@@H](C[C@H](OC(C)=O)[C@@]3(C)Oc4cc(-c5cccnc5)oc(=O)c4[C@H](O)[C@H]23)[C@]1(C)COC(=O)c1ccccc1`, the half-life at 6 ug/ml in data set [1] is over 9 h. Further, the Ratio IC50 in data set [2] is 10 to 20.
As for `CCc1ccc(C(=O)O[C@H]2C[C@H]3[C@](C)(COC(C)=O)[C@@H](OC(C)=O)CC[C@]3(C)[C@H]3[C@@H](O)c4c(cc(-c5cccnc5)oc4=O)O[C@]23C)cc1`, the half-life at 6 ug/ml in data set [1] was under 1 h.
Take `CC(=O)OC[C@@]1(C)[C@@H]2C[C@H](OC(=O)c3ccc(C)cc3)[C@@]3(C)Oc4cc(-c5cccnc5)oc(=O)c4[C@H](O)[C@@H]3[C@@]2(C)CC[C@@H]1OC(C)=O`: the half-life at 6 ug/ml in data set [1] was under 1 h.
In data set [1], `C[C@]1(COC(=O)c2ccccc2)[C@@H]2C[C@H](OC(=O)c3ccc(C#N)cc3)[C@@]3(C)Oc4cc(-c5cccnc5)oc(=O)c4[C@H](O)[C@@H]3[C@@]2(C)CC[C@@H]1OC(=O)c1ccccc1` returned a half-life at 6 ug/ml of over 9 h. Besides, the Ratio IC50 in data set [2] is 10 to 20.
With `COc1ccc(C(OC)O[C@H]2C[C@H]3[C@]4(C)CO[C@@H](c5ccccc5)O[C@H]4CC[C@]3(C)[C@H]3[C@@H](O)c4c(cc(-c5cccnc5)oc4=O)O[C@]23C)cc1` (stereo partly specified), the half-life at 6 ug/ml in data set [1] was over 9 h. Besides, the Ratio IC50 in data set [2] is 10 to 20.
For the molecule `CC(=O)OC[C@@]1(C)[C@@H]2C[C@H](OC(=O)c3ccccc3C)[C@@]3(C)Oc4cc(-c5cccnc5)oc(=O)c4[C@H](O)[C@@H]3[C@@]2(C)CC[C@@H]1OC(C)=O`, in data set [1], the half-life at 6 ug/ml is under 1 h.
`C[C@@]12CO[C@@H](c3ccccc3F)O[C@H]1CC[C@@]1(C)[C@H]2C[C@H](OC(=O)c2ccc(C#N)cc2)[C@@]2(C)Oc3cc(-c4cccnc4)oc(=O)c3[C@H](O)[C@H]12` had a half-life at 6 ug/ml in data set [1] of over 9 h. Also, the Ratio IC50 in data set [2] is 10 to 20.
`Cc1ccc([C@@H]2OC[C@@]3(C)[C@@H]4C[C@H](OC(=O)c5ccc(F)cc5)[C@@]5(C)Oc6cc(-c7cccnc7)oc(=O)c6[C@H](O)[C@@H]5[C@@]4(C)CC[C@@H]3O2)c(C)c1` came in with a half-life at 6 ug/ml in data set [1] of over 9 h. Besides, the Ratio IC50 in data set [2] was 10 to 20.
For `Cc1cccc(C)c1[C@@H]1OC[C@@]2(C)[C@@H]3C[C@H](OC(=O)c4ccc(C#N)cc4)[C@@]4(C)Oc5cc(-c6cccnc6)oc(=O)c5[C@H](O)[C@@H]4[C@@]3(C)CC[C@@H]2O1`, the half-life at 6 ug/ml in data set [1] is over 9 h. Further, the Ratio IC50 in data set [2] lay in the range of 10 to 20.
The molecule `CC(=O)OC[C@@]1(C)[C@@H]2C[C@H](OC(=O)C3CCCCC3)[C@@]3(C)Oc4cc(-c5cccnc5)oc(=O)c4[C@H](O)[C@@H]3[C@@]2(C)CC[C@@H]1OC(C)=O` had a half-life at 6 ug/ml in data set [1] of under 1 h.
On to `Cc1ccc([C@@H]2OC[C@@]3(C)[C@@H]4C[C@H](OC(=O)c5ccc(F)cc5)[C@@]5(C)Oc6cc(-c7cccnc7)oc(=O)c6[C@H](O)[C@@H]5[C@@]4(C)CC[C@@H]3O2)cc1`, for which, in data set [1], the half-life at 6 ug/ml was over 9 h. In data set [2], the Ratio IC50 was under 20.
With `CN(C)c1ccc([C@@H]2OC[C@@]3(C)[C@@H]4C[C@H](OC(=O)c5ccc(C#N)cc5)[C@@]5(C)Oc6cc(-c7cccnc7)oc(=O)c6[C@H](O)[C@@H]5[C@@]4(C)CC[C@@H]3O2)cc1`, the half-life at 6 ug/ml in data set [1] is over 9 h. The Ratio IC50 in data set [2] is under 20.
The matching figures for `CC(=O)O[C@H]1C[C@H]2[C@]3(C)CO[C@@H](c4ccccc4)O[C@H]3CC[C@]2(C)[C@H]2[C@@H](O)c3c(cc(-c4cccnc4)oc3=O)O[C@]12C`: over 9 h and 10 to 20.
In turn, `CCCCCC(=O)OC[C@@]1(C)[C@@H]2C[C@H](OC(=O)c3ccc(C#N)cc3)[C@@]3(C)Oc4cc(-c5cccnc5)oc(=O)c4[C@H](O)[C@@H]3[C@@]2(C)CC[C@@H]1OC(=O)CCCCC` gave a half-life at 6 ug/ml in data set [1] of over 9 h. Further, in data set [2], the Ratio IC50 was 10 to 20.
